Data as given in the NIST ThermoML archive (doi:10.1016/j.fluid.2004.02.021).
Numbers after ± are expanded uncertainties.

Settings: Liquid

Row | SMILES | vapor or sublimation pressure (283.15 K) [kPa] | vapor or sublimation pressure (288.15 K) [kPa] | vapor or sublimation pressure (293.15 K) [kPa] | vapor or sublimation pressure (298.15 K) [kPa] | vapor or sublimation pressure (303.15 K) [kPa] | vapor or sublimation pressure (308.15 K) [kPa] | vapor or sublimation pressure (313.15 K) [kPa] | vapor or sublimation pressure (318.15 K) [kPa] | vapor or sublimation pressure (323.15 K) [kPa]
1 | ClC(Cl)=C(Cl)Cl [tetrachloroethene] | 1.023 ± 0.023 | 1.4 ± 0.026 | 1.861 ± 0.028 | 2.462 ± 0.03 | 3.205 ± 0.033 | 4.117 ± 0.037 | 5.253 ± 0.041 | 6.621 ± 0.047 | 8.286 ± 0.054
2 | c1ccccc1 [benzene] | 6.078 ± 0.045 | 7.849 ± 0.052 | 10.03 ± 0.061 | 12.69 ± 0.072 | 15.93 ± 0.085 | 19.81 ± 0.1 | 24.4 ± 0.12 | 29.85 ± 0.14 | 36.24 ± 0.17
3 | ClC(Cl)C(Cl)Cl [1,1,2,2-tetrachloroethane] | 0.263 ± 0.008 | 0.373 ± 0.01 | 0.521 ± 0.013 | 0.711 ± 0.017 | 0.98 ± 0.022 | 1.289 ± 0.028 | 1.701 ± 0.027 | 2.236 ± 0.029 | 2.86 ± 0.032
